# Laboratory results published in patent publication US10227344B2, “CK2 inhibitors, compositions and methods thereof” (Polaris Pharmaceuticals, Inc., priority 2016, dated 2019).
# Legend:
# Type in all cases: cell-based
# K562 = assay: Cancer cell panel, cell viability (resazurin): Leukemia, K562; details: 72 hours, labelled drug combined with Example 3
# Protocol: (§1) Cells were plated in 96-well plates and treated for 72 hours with a serially diluted CK2 inhibitor or anti-cancer drug or their combination. The suspension cell lines were treated right after plating, while the adherent cells were allowed to attach overnight prior to the start of the treatment.
# (§2) Cell viability was determined by adding resazurin to cell cultures and measuring fluorescence with a plate reader. Relative cell viability was calculated by dividing the cell viability signal from a test sample by that of a non-treated control. […] Bliss Independence and Highest Single Agent models were used to determine if there is synergy, additivity or antagonism between the CK2 inhibitor and an anti-cancer drug.
# SK-MEL-24 = assay: Cancer cell panel, cell viability (resazurin): Melanoma, SK-MEL-24; details: SK-MEL-24 (Melanoma), 72 hours; labelled drug combined with Example 3
# Protocol: as §1, §2
# HT29 = assay: Cancer cell panel, cell viability (resazurin): Colon, HT29; details: 72 hours, labelled drug combined with Example 3
# A2780 = assay: Cancer cell panel, cell viability (resazurin): Ovarian, A2780; details: 72 hours, labelled drug combined with Example 3
# RPMI8226 = assay: Cancer cell panel, cell viability (resazurin): multiple myeloma, RPMI8226; details: 72 hours, labelled drug combined with Example 3
# DLD-1 = assay: Cancer cell panel, cell viability (resazurin): Colon, DLD-1; details: DLD-1 (Colon), 72 hours; labelled drug combined with Example 3
# 786-O = assay: Cancer cell panel, cell viability (resazurin): Renal, 786-O; details: 786-O (Renal), 72 hours; labelled drug combined with Example 3
# Protocol: as §1, §2
# MDA-MB-231 = assay: Cancer cell panel, cell viability (resazurin): Breast, MDA-MB-231; details: MDA-MB-231 (Breast), 72 hours; labelled drug combined with Example 3
# MDA-MB-157 = assay: Cancer cell panel, cell viability (resazurin): Breast, MDA-MB-157; details: MDA-MB-157 (Breast), 72 hours; labelled drug combined with Example 3
# Protocol: as §1, §2
# BT-20 = assay: Cancer cell panel, cell viability (resazurin): Breast, BT-20; details: BT-20 (Breast), 72 hours; labelled drug combined with Example 3
# BxPC3 = assay: Cancer cell panel, cell viability (resazurin): Pancreatic, BxPC3; details: 72 hours, labelled drug combined with Example 3
# Protocol: as §1, §2
# SK-MEL-3 = assay: Cancer cell panel, cell viability (resazurin): Melanoma, SK-MEL-3; details: SK-MEL-3 (Melanoma), 72 hours; labelled drug combined with Example 3
# Colo205 = assay: Cancer cell panel, cell viability (resazurin): Colon, Colo205; details: 72 hours, labelled drug combined with Example 3
# HL60 = assay: Cancer cell panel, cell viability (resazurin): Leukemia, HL60; details: 72 hours, labelled drug combined with Example 3
# Protocol: as §1, §2
# A375 = assay: Cancer cell panel, cell viability (resazurin): Melanoma, A375; details: 72 hours, labelled drug combined with Example 3
# Protocol: as §1, §2
# Panc-1 = assay: Cancer cell panel, cell viability (resazurin): Pancreatic, Panc-1; details: Panc-1 (Pancreatic), 72 hours; labelled drug combined with Example 3
# MOLT4 = assay: Cancer cell panel, cell viability (resazurin): Leukemia, MOLT4; details: 72 hours, labelled drug combined with Example 3
# Protocol: as §1, §2
# LoVo = assay: Cancer cell panel, cell viability (resazurin): Colon, LoVo; details: 72 hours, labelled drug combined with Example 3
# Protocol: as §1, §2
# Caki-2 = assay: Cancer cell panel, cell viability (resazurin): Renal, Caki-2; details: Caki-2 (Renal), 72 hours; labelled drug combined with Example 3
# Protocol: as §1, §2
# WM-115 = assay: Cancer cell panel, cell viability (resazurin): Melanoma, WM-115; details: WM-115 (Melanoma), 72 hours; labelled drug combined with Example 3
# Protocol: as §1, §2
# ZR-75-1 = assay: Cancer cell panel, cell viability (resazurin): Breast, ZR-75-1; details: ZR-75-1 (Breast), 72 hours; labelled drug combined with Example 3
# H460 = assay: Cancer cell panel, cell viability (resazurin): NSCLC, H460; details: 72 hours, labelled drug combined with Example 3
# U87MG = assay: Cancer cell panel, cell viability (resazurin): Glioblastoma, U87MG; details: 72 hours, labelled drug combined with Example 3
# H1299 = assay: Cancer cell panel, cell viability (resazurin): NSCLC, H1299; details: 72 hours, labelled drug combined with Example 3
# EOL-1 = assay: Cancer cell panel, cell viability (resazurin): Leukemia, EOL-1; details: EOL-1 (Leukemia), 72 hours; labelled drug combined with Example 3
# HCT116 = assay: Cancer cell panel, cell viability (resazurin): Colon, HCT116; details: 72 hours, labelled drug combined with Example 3
# OVCAR-3 = assay: Cancer cell panel, cell viability (resazurin): Ovarian, OVCAR-3; details: OVCAR-3 (Ovarian), 72 hours; labelled drug combined with Example 3
# Protocol: as §1, §2
# H23 = assay: Cancer cell panel, cell viability (resazurin): NSCLC, H23; details: 72 hours, labelled drug combined with Example 3
# Mia-Paca-2 = assay: Cancer cell panel, cell viability (resazurin): Pancreatic, Mia-Paca-2; details: Mia-Paca-2 (Pancreatic), 72 hours; labelled drug combined with Example 3
# U266 = assay: Cancer cell panel, cell viability (resazurin): multiple myeloma, U266; details: 72 hours, labelled drug combined with Example 3
# H1975 = assay: Cancer cell panel, cell viability (resazurin): NSCLC, H1975; details: 72 hours, labelled drug combined with Example 3
# Caki-1 = assay: Cancer cell panel, cell viability (resazurin): Renal, Caki-1; details: Caki-1 (Renal), 72 hours; labelled drug combined with Example 3
# Protocol: as §1, §2
# MeWO = assay: Cancer cell panel, cell viability (resazurin): Melanoma, MeWO; details: 72 hours, labelled drug combined with Example 3
# Protocol: as §1, §2
# A549 = assay: Cancer cell panel, cell viability (resazurin): NSCLC, A549; details: 72 hours, labelled drug combined with Example 3
# Caov-3 = assay: Cancer cell panel, cell viability (resazurin): Ovarian, Caov-3; details: Caov-3 (Ovarian), 72 hours; labelled drug combined with Example 3
compound,measurement,setting,value
"CC(=O)Nc1cccc(-n2c(=O)n(C3CC3)c(=O)c3c(Nc4ccc(I)cc4F)n(C)c(=O)c(C)c32)c1 [Trametinib, trametinib]","synergy, additivity or antagonism of the combination of Example 3 with the anti-cancer drug",K562,+ (Additive relative to each agent alone (CI = 0.9-1 by Bliss Independence Model and <0.9 by Highest Single Agent Model))
same,"synergy, additivity or antagonism of the combination of Example 3 with the anti-cancer drug",SK-MEL-24,+ + (Slight synergy relative to each agent alone (CI = 0.75-0.9 by Bliss Independence Model))
same,"synergy, additivity or antagonism of the combination of Example 3 with the anti-cancer drug",HT29,+ (Additive relative to each agent alone (CI = 0.9-1 by Bliss Independence Model and <0.9 by Highest Single Agent Model))
same,"synergy, additivity or antagonism of the combination of Example 3 with the anti-cancer drug",A2780,+ + (Slight synergy relative to each agent alone (CI = 0.75-0.9 by Bliss Independence Model))
same,"synergy, additivity or antagonism of the combination of Example 3 with the anti-cancer drug",RPMI8226,+ + (Slight synergy relative to each agent alone (CI = 0.75-0.9 by Bliss Independence Model))
same,"synergy, additivity or antagonism of the combination of Example 3 with the anti-cancer drug",DLD-1,+ + + (Synergy relative to each agent alone (CI = 0.4-0.74 by Bliss Independence Model))
same,"synergy, additivity or antagonism of the combination of Example 3 with the anti-cancer drug",786-O,+ + + (Synergy relative to each agent alone (CI = 0.4-0.74 by Bliss Independence Model))
same,"synergy, additivity or antagonism of the combination of Example 3 with the anti-cancer drug",MDA-MB-231,+ + (Slight synergy relative to each agent alone (CI = 0.75-0.9 by Bliss Independence Model))
same,"synergy, additivity or antagonism of the combination of Example 3 with the anti-cancer drug",MDA-MB-157,+ + (Slight synergy relative to each agent alone (CI = 0.75-0.9 by Bliss Independence Model))
same,"synergy, additivity or antagonism of the combination of Example 3 with the anti-cancer drug",BT-20,+ + + (Synergy relative to each agent alone (CI = 0.4-0.74 by Bliss Independence Model))
same,"synergy, additivity or antagonism of the combination of Example 3 with the anti-cancer drug",BxPC3,+ + + + (Strong synergy relative to each agent alone (CI < 0.4 by Bliss Independence Model))
same,"synergy, additivity or antagonism of the combination of Example 3 with the anti-cancer drug",SK-MEL-3,+ (Additive relative to each agent alone (CI = 0.9-1 by Bliss Independence Model and <0.9 by Highest Single Agent Model))
same,"synergy, additivity or antagonism of the combination of Example 3 with the anti-cancer drug",Colo205,+ + + (Synergy relative to each agent alone (CI = 0.4-0.74 by Bliss Independence Model))
same,"synergy, additivity or antagonism of the combination of Example 3 with the anti-cancer drug",HL60,+ + (Slight synergy relative to each agent alone (CI = 0.75-0.9 by Bliss Independence Model))
same,"synergy, additivity or antagonism of the combination of Example 3 with the anti-cancer drug",A375,+ + (Slight synergy relative to each agent alone (CI = 0.75-0.9 by Bliss Independence Model))
same,"synergy, additivity or antagonism of the combination of Example 3 with the anti-cancer drug",Panc-1,+ (Additive relative to each agent alone (CI = 0.9-1 by Bliss Independence Model and <0.9 by Highest Single Agent Model))
same,"synergy, additivity or antagonism of the combination of Example 3 with the anti-cancer drug",MOLT4,+ (Additive relative to each agent alone (CI = 0.9-1 by Bliss Independence Model and <0.9 by Highest Single Agent Model))
same,"synergy, additivity or antagonism of the combination of Example 3 with the anti-cancer drug",LoVo,+ + (Slight synergy relative to each agent alone (CI = 0.75-0.9 by Bliss Independence Model))
same,"synergy, additivity or antagonism of the combination of Example 3 with the anti-cancer drug",Caki-2,− − − (Strongly antagonistic relative to each agent alone (CI > 1.49 by Highest Single Agent Model))
same,"synergy, additivity or antagonism of the combination of Example 3 with the anti-cancer drug",WM-115,+ + (Slight synergy relative to each agent alone (CI = 0.75-0.9 by Bliss Independence Model))
same,"synergy, additivity or antagonism of the combination of Example 3 with the anti-cancer drug",ZR-75-1,+ + (Slight synergy relative to each agent alone (CI = 0.75-0.9 by Bliss Independence Model))
same,"synergy, additivity or antagonism of the combination of Example 3 with the anti-cancer drug",H460,+ + + (Synergy relative to each agent alone (CI = 0.4-0.74 by Bliss Independence Model))
same,"synergy, additivity or antagonism of the combination of Example 3 with the anti-cancer drug",U87MG,+ + (Slight synergy relative to each agent alone (CI = 0.75-0.9 by Bliss Independence Model))
same,"synergy, additivity or antagonism of the combination of Example 3 with the anti-cancer drug",H1299,+ (Additive relative to each agent alone (CI = 0.9-1 by Bliss Independence Model and <0.9 by Highest Single Agent Model))
same,"synergy, additivity or antagonism of the combination of Example 3 with the anti-cancer drug",EOL-1,+ + (Slight synergy relative to each agent alone (CI = 0.75-0.9 by Bliss Independence Model))
same,"synergy, additivity or antagonism of the combination of Example 3 with the anti-cancer drug",HCT116,+ + + (Synergy relative to each agent alone (CI = 0.4-0.74 by Bliss Independence Model))
same,"synergy, additivity or antagonism of the combination of Example 3 with the anti-cancer drug",OVCAR-3,+ + (Slight synergy relative to each agent alone (CI = 0.75-0.9 by Bliss Independence Model))
same,"synergy, additivity or antagonism of the combination of Example 3 with the anti-cancer drug",H23,+ + + (Synergy relative to each agent alone (CI = 0.4-0.74 by Bliss Independence Model))
same,"synergy, additivity or antagonism of the combination of Example 3 with the anti-cancer drug",Mia-Paca-2,+ (Additive relative to each agent alone (CI = 0.9-1 by Bliss Independence Model and <0.9 by Highest Single Agent Model))
same,"synergy, additivity or antagonism of the combination of Example 3 with the anti-cancer drug",U266,+ + (Slight synergy relative to each agent alone (CI = 0.75-0.9 by Bliss Independence Model))
same,"synergy, additivity or antagonism of the combination of Example 3 with the anti-cancer drug",H1975,+ + + (Synergy relative to each agent alone (CI = 0.4-0.74 by Bliss Independence Model))
same,"synergy, additivity or antagonism of the combination of Example 3 with the anti-cancer drug",Caki-1,+ (Additive relative to each agent alone (CI = 0.9-1 by Bliss Independence Model and <0.9 by Highest Single Agent Model))
same,"synergy, additivity or antagonism of the combination of Example 3 with the anti-cancer drug",MeWO,+ + (Slight synergy relative to each agent alone (CI = 0.75-0.9 by Bliss Independence Model))
same,"synergy, additivity or antagonism of the combination of Example 3 with the anti-cancer drug",A549,+ + + + (Strong synergy relative to each agent alone (CI < 0.4 by Bliss Independence Model))
same,"synergy, additivity or antagonism of the combination of Example 3 with the anti-cancer drug",Caov-3,+ + (Slight synergy relative to each agent alone (CI = 0.75-0.9 by Bliss Independence Model))
